Experimental data reported in the NIST ThermoML archive (doi:10.1021/acs.jced.6b00750).

Assay: xn = mol fraction of the nth substance listed
Settings: Liquid; for mass density: Vibrating wire densiometer; for viscosity: Vibrating wire viscometry

C [methane] + CCCCCCCCCCCCCCCC
Settings | mass density [kg/m3] | viscosity [mPa·s]
298.15 K, 10230 kPa, x1 = 0.1013 | 781.6 | 3.304
298.15 K, 19830 kPa, x1 = 0.1013 | 786.5 | 3.687
298.21 K, 20070 kPa, x1 = 0.2976 | 780.7 | 3.712
298.21 K, 30320 kPa, x1 = 0.2976 | 786 | 4.196
298.22 K, 10040 kPa, x1 = 0.2021 | 775.4 | 3.308
298.22 K, 19950 kPa, x1 = 0.2021 | 781.3 | 3.742
298.33 K, 13910 kPa, x1 = 0.3979 | 781.1 | 3.321
298.33 K, 20030 kPa, x1 = 0.3979 | 784.6 | 3.548
298.33 K, 30040 kPa, x1 = 0.3979 | 791 | 3.938
323.22 K, 10080 kPa, x1 = 0.1013 | 765.4 | 1.993
323.22 K, 20170 kPa, x1 = 0.1013 | 771.2 | 2.205
323.22 K, 40020 kPa, x1 = 0.1013 | 783.4 | 2.69
323.22 K, 60000 kPa, x1 = 0.1013 | 791.6 | 3.255
323.22 K, 78560 kPa, x1 = 0.1013 | 801.7 | 3.927
323.23 K, 20400 kPa, x1 = 0.2976 | 769.6 | 2.151
323.23 K, 21720 kPa, x1 = 0.2976 | 770.4 | 2.147
323.23 K, 21740 kPa, x1 = 0.2976 | 770.3 | 2.146
323.23 K, 40220 kPa, x1 = 0.2976 | 781.5 | 2.597
323.23 K, 60040 kPa, x1 = 0.2976 | 791.5 | 3.162
323.23 K, 79910 kPa, x1 = 0.2976 | 800.3 | 3.859
323.26 K, 14530 kPa, x1 = 0.3979 | 763.7 | 1.887
323.26 K, 14750 kPa, x1 = 0.3979 | 763.9 | 1.918
323.26 K, 20040 kPa, x1 = 0.3979 | 766.5 | 2.058
323.26 K, 40050 kPa, x1 = 0.3979 | 778.7 | 2.56
323.32 K, 10010 kPa, x1 = 0.2021 | 756.6 | 1.901
323.32 K, 20100 kPa, x1 = 0.2021 | 763.2 | 2.147
323.32 K, 39150 kPa, x1 = 0.2021 | 775.8 | 2.576
373.2 K, 10050 kPa, x1 = 0.2021 | 721.1 | 0.926
373.2 K, 12610 kPa, x1 = 0.2021 | 723.4 | 0.951
373.2 K, 20020 kPa, x1 = 0.2021 | 729.5 | 1.037
373.2 K, 40260 kPa, x1 = 0.2021 | 744.4 | 1.27
373.2 K, 60350 kPa, x1 = 0.2021 | 757.1 | 1.521
373.2 K, 65050 kPa, x1 = 0.2021 | 759.8 | 1.586
373.26 K, 10000 kPa, x1 = 0.1013 | 732.3 | 0.967
373.26 K, 20170 kPa, x1 = 0.1013 | 740.6 | 1.112
373.26 K, 40110 kPa, x1 = 0.1013 | 754.5 | 1.334
373.26 K, 60080 kPa, x1 = 0.1013 | 767.4 | 1.571
373.26 K, 80130 kPa, x1 = 0.1013 | 777.3 | 1.897
373.41 K, 24090 kPa, x1 = 0.2976 | 738.5 | 1.04
373.41 K, 24100 kPa, x1 = 0.2976 | 738.2 | 1.038
373.41 K, 40140 kPa, x1 = 0.2976 | 749.9 | 1.222
373.41 K, 60030 kPa, x1 = 0.2976 | 762.2 | 1.465
373.41 K, 80100 kPa, x1 = 0.2976 | 773.7 | 1.749
373.47 K, 16680 kPa, x1 = 0.3979 | 730.1 | 0.921
373.47 K, 16740 kPa, x1 = 0.3979 | 729.9 | 0.942
373.47 K, 20010 kPa, x1 = 0.3979 | 732.4 | 0.97
373.47 K, 40020 kPa, x1 = 0.3979 | 747.6 | 1.17
373.47 K, 54720 kPa, x1 = 0.3979 | 756.7 | 1.365
373.47 K, 56030 kPa, x1 = 0.3979 | 757.3 | 1.364
423.24 K, 10310 kPa, x1 = 0.2021 | 686.8 | 0.557
423.24 K, 10870 kPa, x1 = 0.2021 | 687.6 | 0.556
423.24 K, 10900 kPa, x1 = 0.2021 | 687.1 | 0.557
423.24 K, 20030 kPa, x1 = 0.2021 | 697.4 | 0.625
423.24 K, 40040 kPa, x1 = 0.2021 | 715.6 | 0.762
423.24 K, 60080 kPa, x1 = 0.2021 | 730.3 | 0.912
423.24 K, 80150 kPa, x1 = 0.2021 | 743.2 | 1.067
423.31 K, 15700 kPa, x1 = 0.1013 | 707.2 | 0.611
423.31 K, 20010 kPa, x1 = 0.1013 | 711.8 | 0.643
423.31 K, 40030 kPa, x1 = 0.1013 | 728 | 0.816
423.31 K, 60000 kPa, x1 = 0.1013 | 744.5 | –
423.31 K, 80070 kPa, x1 = 0.1013 | 754.2 | 1.133
423.58 K, 20510 kPa, x1 = 0.2976 | 703.1 | 0.612
423.58 K, 20550 kPa, x1 = 0.2976 | 703.3 | 0.606
423.58 K, 22750 kPa, x1 = 0.2976 | 705.4 | 0.618
423.58 K, 40090 kPa, x1 = 0.2976 | 720.8 | 0.734
423.58 K, 60240 kPa, x1 = 0.2976 | 735.9 | 0.873
423.58 K, 80360 kPa, x1 = 0.2976 | 748.5 | 1.03
423.94 K, 16530 kPa, x1 = 0.3979 | 696.8 | 0.565
423.94 K, 16610 kPa, x1 = 0.3979 | 697.1 | 0.555
423.94 K, 20030 kPa, x1 = 0.3979 | 700.1 | 0.587
423.94 K, 40010 kPa, x1 = 0.3979 | 718.3 | 0.717
423.94 K, 56150 kPa, x1 = 0.3979 | 730.8 | 0.822
473.17 K, 40030 kPa, x1 = 0.1013 | 705.1 | 0.591
473.17 K, 60040 kPa, x1 = 0.1013 | 721.8 | 0.687
473.17 K, 80060 kPa, x1 = 0.1013 | 735.5 | 0.794
473.36 K, 12980 kPa, x1 = 0.2021 | 656.9 | 0.388
473.36 K, 13010 kPa, x1 = 0.2021 | 656.8 | 0.387
473.36 K, 20070 kPa, x1 = 0.2021 | 666.6 | 0.425
473.36 K, 40070 kPa, x1 = 0.2021 | 688.4 | 0.53
473.36 K, 60040 kPa, x1 = 0.2021 | 706.1 | 0.627
473.36 K, 80030 kPa, x1 = 0.2021 | 720.5 | 0.732
473.4 K, 24480 kPa, x1 = 0.2976 | 676.6 | 0.431
473.4 K, 24500 kPa, x1 = 0.2976 | 676.6 | 0.427
473.4 K, 40130 kPa, x1 = 0.2976 | 693.5 | 0.501
473.4 K, 60110 kPa, x1 = 0.2976 | 710.7 | 0.6
473.4 K, 79930 kPa, x1 = 0.2976 | 724.7 | 0.717
473.68 K, 22720 kPa, x1 = 0.3979 | 673.5 | 0.42
473.68 K, 25730 kPa, x1 = 0.3979 | 676.9 | 0.435
473.68 K, 40080 kPa, x1 = 0.3979 | 692.4 | 0.502
473.68 K, 60000 kPa, x1 = 0.3979 | 709.8 | 0.596
473.68 K, 80230 kPa, x1 = 0.3979 | 724.2 | 0.704
